Source: patent US8119812B2, “Thiazolidinone derivative” (SBI Biotech Co., Ltd., priority 2009, dated 2012)

These compounds were tested on HeLa cells (assay: Cell proliferation inhibitory activity, WST-1 assay, HeLa cells). Conditions: FIG. 1; incubation for 24 hours after adding compound; absorbance at 450 nm (WST-1); cell line not given.
Assay type: cell-based
Procedure: Cell proliferation inhibitory activity of the thiazolidinone derivatives shown in Tables 2 to 21 and 26 to 29 were evaluated according to the following procedure.
HeLa cells (ATCC) were cultured in a medium (DMEM-10% FCS-Penicillin/Streptomycin) on 10-cm dishes. The medium was removed from the HeLa cells (ATCC) in healthy growth conditions (70 to 90% confluent), the cells were detached by treating with 2 ml of trypsin (TrypL Express, GIBCO), and then the cells were collected using the same medium.
After the collected cells were suspended in the medium at a concentration of 5×10^4 cells/mL, 100 μL, each of the cells were seeded on 96-well plates (FALCON, 3530) at a concentration of 5×10^3 […]. Each medium alone without cells was added to the blank wells. The wells were incubated in a 5% CO2 incubator. The culture media used are as follows.
HeLa cells: DMEM-10% FCS-Penicillin/Streptomycin,
The following day after the start of culturing, the medium was replaced with that including candidate compounds. At the beginning, the candidate compounds were diluted with DMSO, and a 10-step dilution series from 0 μM to 12.5 mM was prepared. 249 μL of the medium was added to 1.5-ml tubes. Then, 1 μL of the compound diluted with DMSO was added thereto at each concentration, and this was mixed. By this procedure, the ratio of DMSO included becomes 1/250. More specifically, in case of the following dilution series, the final concentrations of candidate compounds are as follows.
After removing the medium in wells, each candidate compound was added in duplicate to each well at a volume of 100 μL per one concentration. […]
On the next day or the day after the next day (24 to 48 hours later), 10 μL of Cell Proliferation Reagent WST-1 (ROCHE) was added to each well. […] The formed pigment can be assayed by measuring the absorbance at 450 nm. After incubation for an hour in a CO2 incubator, the absorbance at 450 nm was measured using a microplate reader. The values were evaluated by subtracting the blank value, and plotted by curve-fitting using the Prism software, and IC50 was calculated.
For `Cc1cc(OC2CCN(C)C2)ccc1/N=C1/NC(=O)/C(=C/c2cnc(NC(=O)C3CC3)s2)S1` (stereo not drawn) [Compound 139, (2Z,5Z)-cyclopropyl-N-{5-[(2-{[2-methyl-4-(1-methylpyrrolidin-3-yloxy)phenyl]azamethylene}-4-oxo(1,3-thiazolidin-5-ylidene))methyl] (1,3-thiazol-2-yl)}carboxamide], the cell proliferation-inhibiting effect was “strong inhibitory effect”. In the case of `Cc1cc(OCCN(C)C)ccc1/N=C1/NC(=O)/C(=C/c2cnc(NC(=O)C3CC3)s2)S1` [Compound 119, (2Z,5Z)-N-(5{[2-({4-[2-(dimethylamino)ethoxy]-2-methylphenyl}azamethylene)-4-oxo(1,3-thiazolidin-5-ylidene)]methyl}(1,3-thiazol-2-yl))cyclopropylcarboxamide], the cell proliferation-inhibiting effect is reported as “strong inhibitory effect”. With `COC(=O)N(C)CCOc1ccc(/N=C2/NC(=O)/C(=C/c3cnc(NC(=O)C4CC4)s3)S2)c(C)c1` [Compound 137, (2Z,5Z)-N-(2-{4-[(5-{[2-(cyclopropylcarbonylamino) (1,3-thiazol-5-yl)]methylene}-4-oxo(1,3-thiazolidin-2-ylidene))azamethyl]-3-methylphenoxy}ethyl) methoxy-N-methylcarboxamide] the cell proliferation-inhibiting effect was “strong inhibitory effect”.
